Here are results for one compound from US20180141939A1, “SOLID FORMS OF A BET INHIBITOR” (Gilead Sciences, Inc., priority 2016, published 2018).

What all share (format): physicochemical
Data set [1] is described as follows: Susceptibility to oxidation in solution as a function of pH. To be noted: about 40° C., about 14 days. The source says:
In the presence of iron (II) ions, formation of a complex with iron is observed at high pH (FIG. 90). This complex can be reversed to yield Compound I by addition of a strong acid.

The next data set can be described thus: physchem.
Data set [2] in a line: Ionization constants (pKa). As to conditions: multiple ionization constants; read-out: weak base pKa values.
A short description of data set [3]: Chemical stability in aqueous solutions as a function of pH and temperature. As to conditions: for degradation in aqueous solution: about 20 weeks. On the procedure: (FIG. 88(a)), or about 40° C. (FIG. 88(b)) over a period of about 20 weeks.
[4] abbreviates: increased degradation at higher pH.

Values after ≈ are worked out from the molar mass of the structure shown.

Broadly, the solubility is the concentration that dissolves in the medium under given conditions. Low values mean a poorly soluble substance, high ones a readily soluble substance. In general, pKa refers to the negative logarithm of the acid dissociation constant. As to `Cc1noc(C)c1-c1cc(C(O)(c2ccccn2)c2ccccn2)c2nc(C3CC3)[nH]c2c1` [Compound I, (2-cyclopropyl-6-(3,5-dimethylisoxazol-4-yl)-1H-benzo[d]imidazol-4-yl)di(pyridin-2-yl)methanol], the “degradation in solution containing polysorbate 80” value in data set [1] is “No significant degradation”. In data set [1], the “degradation in solution containing radical initiator” value was “No significant degradation”. In addition, the “degradation in solution containing hydrogen peroxide” value in data set [1] (setting [4]) is given as “loss of Compound I”. For the same compound, in data set [1] (setting [4]), the “degradation in solution containing iron (II) ions” value is “loss of Compound I”. Further, the solubility in the data set “physchem” (pH 2.4, aqueous buffer) was over 100000 µg/mL; in “physchem” (pH 8, aqueous buffer), 9.2 µg/mL (≈ 21 µM). The pKa in data set [2] was found to be 2.9. In addition, the “degradation in aqueous solution” value is “no significant degradation” in data set [3] (about pH 1 to about pH 11, about 25° C.); “no significant degradation” in data set [3] (about pH 1 to about pH 11, about 40° C.); “no significant degradation” in data set [3] (about pH 1 to about pH 11, about 60° C., exception pH 5 (small amount of aluminum complex)). In data set [3] (aqueous solutions as a function of pH and temperature), the “susceptibility to acid- or base-catalyzed degradation” value is “not susceptible to acid- or base-catalyzed degradation”.
